# Like-named read-outs stand apart in the source and are kept apart here.
# How the values were obtained:
# [1] = Radiation induced mucositis assay; assay type: in vivo, Mice (C57bl/6); conditions: 8.0 Gy whole body irradiation; 20 mg/kg IP BID 6 days
# Protocol: Mice (C57bl/6) were subjected to whole body irradiation (8.0 Gy) and immediately afterwards treated with a compound of Formula (I) (20 mg/kg in saline, IP, BID (i.e. 40 mg/kg per day)) or saline alone (0.15 M NaCl) for 6 days. The small intestine was removed at day 6 and digested to release cells. The number of CD11b^+F4/80^+ macrophages from the small intestine was determined by flow cytometry (FIG. 2).
# KG1 cells = test: Static adhesion of KG1 cells to E-selectin coated plates; assay type: cell-based, human; conditions: added post-binding of 5-azacytidine treated KG1 cells
# Source text: These findings indicate that hypomethylating agents, including 5-azacytidine, may increase the adhesion of leukemic blasts in the bone marrow and therefore hinder the intended anti-leukemic effect. This could explain a source of chemoresistance, and potential for relapse, in patients treated with hypomethylating agents.
# [2] = Pharmacokinetics of weight-based doses in AML subjects; assay type: in vivo, human; conditions: for AUC, Mean / AUC, Median: dose 13 to dose 15; for Cmax: human, plasma, intravenous
# Protocol: Three cohorts of 6-7 human subjects with acute myeloid leukemia (AML) each received a total of 15 infusions of 5, 10, or 20 mg/kg/dose over 8 days with a nominal infusion duration of 20 minutes. The first dose of a compound of Formula (I), was administered 24 hours±1 hour prior to the first dose of MEC (mitoxantrone, etoposide, and cytarabine) induction chemotherapy as a sentinel dose to evaluate the effect of the compound of Formula (I) alone, and then every 12 hours±1 hour on chemotherapy days, starting 2 hours prior to chemotherapy. […] MEC chemotherapy was administered on Days 2-6. Samples were obtained pre-dose, on Day 1, Day 3, Day 8, Day 9, and Day 10 (where Day 1 refers to the first day of dosing with a compound of Formula (I)).
# [3] = system: relapsed/refractory type acute myeloid leukemia (AML); test: Phase 1 clinical outcomes, relapsed/refractory AML, sodium salt infusion with MEC; assay type: in vivo; conditions: R/R AML
# Protocol: Three cohorts of 6-7 human subjects with relapsed/refractory type acute myeloid leukemia (AML) each received a total of 15 infusions of 5, 10, or 20 mg/kg/dose of the compound of Formula (I), administered as the sodium salt, over 8 days with a nominal infusion duration of 20 minutes. The nominal infusion duration of 20 minutes was constant across cohorts (e.g., a slower infusion rate was used for the administration of the 5 mg/kg/dose arm than for the 10 mg/kg/dose arm). The formulation for the infusion solution was as follows: […]
# (§1) The first dose of a compound of Formula (I) was administered 24 hours±1 hour prior to the first dose of MEC (mitoxantrone, etoposide, and cytarabine) induction chemotherapy as a sentinel dose to evaluate the effect of the compound of Formula (I) alone (i.e., a single dose of 5, 10, or 20 mg/kg the day before the first chemotherapy day). The compound of Formula (I) was then administered every 12 hours±1 hour on chemotherapy days, starting 2 hours prior to chemotherapy (i.e., 10, 20, or 40 mg/kg per day on chemotherapy days). […] MEC chemotherapy was administered on Days 2-6.
# (§2) The clinical outcome for each subject was assessed at the time of count recovery following completion of induction chemotherapy. Subjects were assigned to one of four response groups: complete remission (“CR”); complete remission with incomplete count recovery (“CRi”); morphologic leukemia-free state (“MLFS”); persistent disease (“PD”). Complete remission was defined as bone marrow blasts <5%; absence of circulating blasts and blasts with Auer rods; absence of extramedullary disease; ANC ≥1.0×10^9/L and platelets ≥100,000×10^9/L. Complete remission with incomplete recovery was defined as: all CR criteria except for residual neutropenia (<1.0×10^9/L) or thrombocytopenia (<100,000×10^9/L). Morphologic leukemia-free state was defined as: bone marrow blasts <5%; absence of blasts with Auer rods; absence of extramedullary disease; no hematologic recovery required. Persistent disease was defined as: bone marrow blasts >5%.
# [4] = system: relapsed/refractory (R/R) acute myeloid leukemia (AML); test: Phase 2 clinical outcomes, relapsed/refractory AML, sodium salt infusion with MEC; assay type: in vivo, human
# Protocol: In this Phase 2 study related to the Phase 1 study described above (see Example 13), 47 additional subjects were administered the RP2D dose of 10 mg/kg/dose. The data of the 19 subjects in the 10 mg/kg/dose arm of the Phase 1 study was added to the data of these 47 additional subjects, resulting in data for 66 human subjects being considered in the Phase 2 study.
# In detail, consistent with the Phase 1 study protocols, a total of 66 human subjects with relapsed/refractory (R/R) acute myeloid leukemia (AML) were selected for this study (i.e., the 19 subjects from the 10 mg/kg/dose arm of the Phase 1 study plus 47 additional subjects).
# Whether as part of the Phase 1 study (for 19 of the subjects) or as an additional subject for the Phase 2 study, each subject received a total of 15 infusions of the RP2D dose of 10 mg/kg/dose of the compound of Formula (I), administered as the sodium salt, over 8 days with a nominal infusion duration of 20 minutes (either as part of the Phase 1 study for 19 subjects or as a new Phase 2). The formulation for the infusion solution was as follows: […]
# as §1, with “10” for “5, 10, or 20”, “20” for “10, 20, or 40”
# as §2
# Outcomes shown below provide data for Phase 1 (Example 13, all cohorts combined), Phase 2, and Total (Phase 1 and Phase 2) subject populations.
structure (smiles),measurement,setting,value
CC[C@@H]1CC(C(=O)NCCNC(=O)CCOCCOCCOCCOCCOCCOCCOCCOCCOCCOCCOCCOC)C[C@@H](O[C@@H]2O[C@@H](CO)[C@H](O)C(O[C@@H](CC3CCCCC3)C(=O)O)C2NC(C)=O)C1OC1O[C@@H](C)C(O)[C@H](O)[C@@H]1O (some centres unmarked) [compound of Formula (I)],CD11b+F4/80+ macrophages in small intestine,[1],decreased migration of inflammatory macrophages to the intestines
same,uncoupling of adhesion,KG1 cells,~90%
same,"AUC, Mean",[2]; 5 mg/kg/dose,5.21 µg·days/mL
same,"AUC, Median",[2]; 5 mg/kg/dose,4.83 µg·days/mL
same,"AUC, Mean",[2]; 10 mg/kg/dose,9.63 µg·days/mL
same,"AUC, Median",[2]; 10 mg/kg/dose,9.63 µg·days/mL
same,"AUC, Mean",[2]; 20 mg/kg/dose,20.43 µg·days/mL
same,"AUC, Median",[2]; 20 mg/kg/dose,19.33 µg·days/mL
same,Cmax,"[2]; 5 mg/kg, 5 mg/kg/dose, read-out: Cmax, Mean",38.5 µg/mL
same,Cmax,"[2]; 5 mg/kg, 5 mg/kg/dose, read-out: Cmax, Median",36.3 µg/mL
same,Cmax,"[2]; 10 mg/kg, 10 mg/kg/dose, read-out: Cmax, Mean",79.6 µg/mL
same,Cmax,"[2]; 10 mg/kg, 10 mg/kg/dose, read-out: Cmax, Median",76.2 µg/mL
same,Cmax,"[2]; 20 mg/kg, 20 mg/kg/dose, read-out: Cmax, Mean",167 µg/mL
same,Cmax,"[2]; 20 mg/kg, 20 mg/kg/dose, read-out: Cmax, Median",153 µg/mL
same,CR with incomplete recovery (CRi),[3]; 10 mg/kg/dose,0 n
same,Morphologic Leukemia-Free State (MLFS),[3]; 10 mg/kg/dose,0 n
same,CR with incomplete recovery (CRi),[3]; 20 mg/kg/dose,0 n
same,Morphologic Leukemia-Free State (MLFS),[3]; 20 mg/kg/dose,0 n
same,All-Cause Mortality 30 days,[3]; Phase 1,0 n
same,CR/CRi Rate: Cytogenetics (SWOG) Favorable risk,[3]; Phase 1,0 n
same,CR/CRi Rate: FLT3-ITD mutated,[3]; Phase 1,0 n
same,CR/CRi Rate: Relapsed ≥12-<24 months,[3]; Phase 1,0 n
same,Partial Remission (PR),[3]; Phase 1,0 n
same,CR Rate: Cytogenetics Favorable risk,[3]; Phase 1 subgroup,0 n
same,response rate (CR/CRi),[4]; after a single course of induction treatment with MEC,over 40%
same,severe oral mucositis rate,[4]; with MEC,2-3%
same,"one-year survival rate, MRD negative subjects","[4]; with MEC, RP2D 10 mg/kg/dose",73%
same,"one-year survival rate, all subjects","[4]; with MEC, RP2D 10 mg/kg/dose",35%
same,median overall survival,"[4]; with MEC, RP2D 10 mg/kg/dose, 95% CI 5.7-11.4",8.8 months
